In patent US20170260169A1, “INHIBITORS FOR STEROID RESPONSE ELEMENTS AND RNA POLYMERASE II AND RELATED METHODS” (priority 2007, published 2017):

What was measured:
[1] = test system: p53 target genes; test: Quantitative RT-PCR of p53 target genes in LNCaP cells; format: cell-based
Description: RNA was extracted using RNEasy columns (Qiagen) according to manufacturer's protocols. cDNA was generated from RNA by reverse transcriptase (Transcriptor First Strand cDNA kit, Roche). Quantitative real-time RT-PCR was performed using SYBR Green PCR Master Mix (Applied Biosystems) on an ABI 7300 instrument. mRNA was measured relative to B glucuronidase as an endogenous control.
The cells were then treated with 1, 3, and 10 μM of 78 for 72 h. Total cellular RNA was extracted using RNEasy columns (Qiagen) following the manufacturer's protocols. Isolated RNA was reverse transcribed with Transcriptor First Strand cDNA kit (Roche). Quantitative real-time PCR was performed using SYBR Green PCR Master Mix (Applied Biosystems) on an ABI 7300 instrument. Amplification of p21, IGFBP3, and GADD45A cDNA was measured relative to β-glucuronidase using previously published primers (24). Experiments were performed in biological replicates.

[2] = test system: binding of LNCaP nuclear extract factors to the ARE site in the PSA promoter; test: Electrophoretic mobility shift assay with DHT-stimulated LNCaP nuclear extract; format: biochemical
Description: containing the PSA promoter ARE (underlined) was end-labeled with ^32P and annealed to its complement. Polyamides 1 and 2 were incubated with the duplex for 3 h in previously optimized buffer conditions (45). Nuclear extract from DHT-treated LNCaP cells (Genetex, San Antonio, Tex.) was then added for an additional 45 min. Complexes were run on a 5% polyacrylamide gel and visualized on a phosphorimager.
The effects of polyamides 1 and 2 on the binding of factors present in the nuclear extract isolated from DHT-stimulated LNCaP cells to the ARE site in the PSA promoter was measured by an electrophoretic mobility shift assay (FIG. 8D).

[3] = Liver microsomal stability, mouse; conditions: 1 μM, Mouse, 1 hr at 37° C., 1 mg/ml microsomes
Description: Briefly, each polyamide was incubated with 1 mg/ml human or mouse microsomes at 37° C. The reaction was incubated in 100 mM KH2PO4, 2 mM NADPH, 3 mM MgCl2 at pH 7.4. Samples were also incubated in the absence of NADPH to detect NADPH-free degradation. After 60 min the samples were mixed with an equal volume of ice cold methanol stop solution. The mixture was allowed to sit on ice for at least 10 min and mixed with an equal volume of water. The samples were then centrifuged to remove the precipitates and the samples were analyzed by LC/MS/MS. Data represents % remaining by comparing with time zero concentration. The experiments were performed in duplicate.

[4] = test system: RNAP2 genomic occupancy; test: ChIP-seq of RNA polymerase II occupancy in LNCaP cells; format: cell-based, human
[5] = test system: GILZ enhancer GRE2; test: Quantitative DNase I footprint titration on pKAM5 fragment, GRE2; format: binding
Description: Detailed experimental protocols are reported elsewhere (44). The GILZ enhancer contains two GREs separated by 22 base pairs (46). GRE 1 is 5'-[NT]=3' (SEQ ID NO:5) and GRE 2 is […] ID NO:7). The DNA binding of polyamides 1 and 2 on these sequences was measured by quantitative DNase I footprint. […] […]).

[6] = test system: PSA protein secretion by LNCaP cells; test: Secreted PSA protein by ELISA, LNCaP cells; format: cell-based; conditions: after DHT stimulation, compared with 2 or untreated control
Description: LNCaP cells (ATCC) were plated in 24-well plates at a density of 40-50×10^3 cells per well (80-100×10^3 cells per ml) in RPMI medium 1640 (ATCC) supplemented with 10% FBS (Irvine Scientific, Santa Ana, Calif.). After 72 h, the medium was replaced with RPMI medium 1640 containing 10% charcoal stripped FBS with or without polyamides at the designated concentrations. Cells were grown for an additional 48 h and then treated with 1 nM DHT for 16 h. When appropriate, bicalutamide was added 2 h before DHT stimulation. Isolation of RNA and cDNA synthesis was performed as described (21). Quantitative real-time RT-PCR was performed with SYBR Green PCR Master Mix (Applied Biosystems, Foster City, Calif.) on an ABI 7300 instrument. PSA mRNA was measured relative to β-glucuronidase as an endogenous control. Primer sequences are available upon request. Cell-culture supernatants were collected for an ELISA (R & D Systems, Minneapolis, Minn.) to measure PSA protein according to the manufacturer's protocol.

[7] = test system: FKBP5 mRNA expression in LNCaP cells; test: DHT-induced FKBP5 mRNA in LNCaP cells; format: cell-based
[8] = Escalating single dose subcutaneous injections, male C57BL/6J mice (weight, histopathology, serum)
Description: Representative mice (n=2 per dosing group unless otherwise noted) were subjected to histopathology analysis by a veterinary pathologist. Blood from all mice was sampled and sent for analysis of serum markers of target organs. […] These mice were euthanized when significant duress was apparent.
All animal experiments were conducted under an approved protocol at the California Institute of Technology. Animals were allowed to adjust for 3 days after arrival before treatment. […] Animals were monitored daily for weight loss over 9 days and sacrificed. […] Weight was recorded on days of injection and at the experiment endpoint.
Sacrificed animals from weight loss experiments were fixed in 10% formalin and sent for histopathology analysis by IDEXX-RADIL. Histopathologic analysis was performed on the cecum, duodenum, heart, ileum, kidney, liver, lung, pancreas, spleen, and stomach. Tissue analysis was performed as a blind study to the identity of the animals.
Serum from treated animals were collected by retroorbital bleeding. Blood samples were centrifuged at 6,000 rpm for 5 min to collect the serum. Serum ALT, AST, total bilirubin, BUN, and creatinine levels were sent for analysis by IDEXX-RADIL. Serum analysis was performed as a blind study to the identity of the animals.

[9] = test system: p53; test: p53 protein ELISA in LNCaP cells; format: cell-based; conditions: polyamide 10 μM 72 hr; doxorubicin 1 μM 24 hr
Description: Cellular levels of RPB1 and p53 protein in LNCaP cells after treatment with 10 μM 3 for 72 h were determined by ELISA. Cells treated with DMSO vehicle and 1 μM doxorubicin for 24 h were used as control. Cellular RBP1 levels were determined by a RPB1 specific ELISA kit (Cusabio Life Sciences) according to manufacturer's instructions. Total cellular p53 protein level was determined with a pan-p53 ELISA kit (Roche) according to manufacturer's instructions. Assays were performed in biological triplicates.

[10] = cited from earlier work
[11] = test system: AR occupancy at the FKBP5 intronic enhancer; test: Chromatin immunoprecipitation with anti-AR, FKBP5 fifth intron enhancer; format: cell-based; conditions: 10 μM
[12] = test system: duplex DNA containing the target site 5′-WGWWCW-3′; test: Thermal denaturation assay of DNA duplexes; format: binding; conditions: duplex 5′-CGATGTTCAAGC-3′
Description: Polyamides 77 and 85 were incubated with duplex DNA 5′-[…]-3′ (SEQ ID NO:36), which contains the predicted target site for these compounds (underscore). Melting temperature analyses were performed on a Varian Cary 100 spectrophotometer as described (46). Melting temperatures were defined as a maximum of the first derivative of absorbance at 260 nm over the range of temperatures.
Thermal stabilization of the DNA oligo 5′-[…]-3′ (SEQ ID NO:37) by 77-80 (target sequence underlined) was determined as previously described (26).

## CN(CCCNC(=O)c1cccc(C(=O)O)c1)CCCNC(=O)c1cc(NC(=O)c2cc(NC(=O)c3cc(NC(=O)c4nc(NC(=O)[C@H](N)CCNC(=O)c5cc(NC(=O)c6cc(NC(=O)c7cc(NC(=O)c8nccn8C)cn7C)cn6C)cn5C)cn4C)cn3C)cn2C)cn1C [Polyamide 1, ImPyPyPy-2-(R)H^2Nγ-ImPyPyPy-NHMe-IPA]
[1]
  induction of p53 target genes: induced expression of p53 genes
[2]
  concentration inhibiting binding to the labeled duplex: ≥ 10 nM
[3]
  Mean remaining parent NADPH-free: 96.8%
  Mean remaining parent with NADPH: 95.2%
[4]; DHT + 77
  RNAP2 occupancy at enhancer loci: did not significantly change
[4]; DHT + 77, 48 h
  RNAP2 occupancy across genic regions: global decrease of RNAP2 occupancy across genic regions
[5]
  Ka: 8.8±1.8×10^9
[6]
  supernatant concentrations of PSA protein: reduced
[7]
  inhibition of DHT-induced expression of FKBP5: ≈ 60%
[8]; 1, 3, 10 mg/kg
  tolerability, behavior and morbidity after single SC dose: no change in behavior and appearance
[8]; 1, 3, 10 mg/kg, 9 days
  weight loss after single SC dose: significant weight loss only at 10 mg/kg
[8]; single SC 3 mg/kg
  liver histopathology: Mild hepatocellular necrosis and apoptosis
[8]; single SC 10 mg/kg
  kidney histopathology: Milder tubular regeneration and karyomegaly
  liver histopathology: Mild hepatocellular necrosis and apoptosis
[8]; single SC dose
  serum kidney markers creatinine and BUN: not observed for any dose level
  serum liver markers AST, ALT, total bilirubin: significant elevation of AST, ALT, and total bilirubin at 10 mg/kg, indicative of acute damage to liver cells, and moderate elevation of ALT at 3 mg/kg
[9]
  cellular level of p53 protein: increases
[10]; female C57BL/6J mice, 77 at 2.5 and 5 mg/kg, 80 at 2.3 and […]
  animal toxicity after single subcutaneous administration: did not adversely affect the animals
[10]; female mice, 10 mg/kg SC
  weight loss: greater than 15%
[10]; mouse, in vivo
  doses without toxicity: less than 10 mg/kg
[11]
  occupancy of AR at the FKBP5 intronic enhancer: decreased occupancy
[12]
  DNA thermal stability analysis: comparable DNA binding
